Reference: patent publication US9474774B2, “Pyridine alkaloids, preparation process thereof, and the uses of the pyridine alkaloids” (FOOD INDUSTRY RESEARCH AND DEVELOPMENT INSTITUTE, priority 2010, dated 2016)
Several values for one entry are separate records, joined by “and”; a condition that tells them apart may be missing. Equal values may be shown once. Read-outs that look alike come from different tables or passages of the source.

Legend:
3T3-L1 preadipocytes [1] = assay: 3T3-L1 preadipocyte differentiation, DMI differentiation model; format: cell-based; conditions: for triglyceride droplets under inverted microscope: 5 μg/ml, vs DMI control; for TG (%): sample concentration 5 μg/ml, control = 100
Experimental: (§1) Preadipocytes were prepared according to the method described by Waki et al., (2007, “The small molecule harmine is an antidiabetic cell-type-specific regulator of PPARγ expression.” Cell Metabolism, 5(5): 357-370) and Huang et al., (2005, “Herbal or natural medicines as modulators of peroxisome proliferator-activated receptors and related nuclear receptors for therapy of metabolic syndrome.” Basic and Clinical Pharmacology and Toxicology, 96: 3-14.). Preadipocytes were cultured in DMEM (Dulbecco's Modified Eagle's Medium-high glucose, Sigma D-7777) containing 10% of fetal bovine serum (FBS) and incubated at 37° C. in a 5% CO2 incubator.
(§2) Before the differentiation induction experiments, the cells were plated into either 96- or 24-well plates (the concentration of cells in each well was about 2×10^4/cm^2). The plates were incubated for about two days to allow the cells to proliferate to confluence, and then maintained for another two days. The medium was changed to different differentiation media according to different experiments. The day of switching to differentiation medium was designated as day zero.
The differentiation medium used in DMI differentiation model comprised an three-in-one differentiation inducer (DMI): dexamethasone (Sigma D-4902, dissolved in ethanol to produce a 0.25M stock solution), isobutyl-methylxanthine (Sigma 1-5879, dissolved in DMSO to produce a 0.5M stock solution), and insulin (Sigma I-6634, dissolved in 0.01N HCl to produce a 10 mg/ml stock solution). The final concentrations of dexamethasone, isobutyl-methylxanthine and insulin were 0.25 μM, 0.5 mM and 5 μg/ml, respectively.
The four test compounds, Monasnicotinates A, B, C and D, were dissolved in DMSO respectively to produce a 5 mg/ml stock solution. One ml of the differentiation medium containing test sample was added to each well of the 24-well 3T3-L1 preadipocyte plates (the final concentration of the sample in each well was 5 μg/ml). The control group was the culture with only the differentiation medium and no sample. The cultures were incubated at 37° C. in a 5% CO2 incubator for three days, and then the medium was replaced by DMEM with 10% FBS. The cultures were maintained until day 9 or day 10, and the amounts of triglyceride in the cells were analyzed. The extents of differentiation (the amounts of oil droplets) were also examined under an inverted microscope.
(§3) The 96-well plates were rinsed with PBS, and 200 μl of PBS and 5 μl of AdipoRed reagent (Lonze Walkersville, Inc., Walkersville, Md., USA, Catalog No. PT-7009) were added to each well. After 10 to 15 minutes, the plates were read with a spectrofluorometer (Infinite M200) set at an excitation wavelength of 485 nm and an emission wavelength of 572 nm. The fluorescent data of the experiment group was divided by the fluorescent data of the control group to obtain a percentage of induction activity.
(§4) The 24-well plates were rinsed with PBS, and the cells were washed off with 0.1 ml of 1% Triton λ 100 per well. The cells were then frozen, thawed and centrifuged (10,000 rpm/5 min) and the supernatant were collected. An aliquot of 0.05 ml of the supernatant was analyzed using Triglycerol assay Kit (Audit Diagnostics, Ltd.).
(§5) The protein amounts were analyzed using Bio-Rad Dc Protein assay reagent (Bio-Rad). The triglyceride concentration was divided by the protein concentration obtained using Bio-Rad Dc Protein assay to calculated the amount (μg) of triglyceride per μg protein. The triglyceride amounts of the experiment groups were divided by those of the control groups to determine the differentiation induction activity of the samples.
(§6) 3T3-L1 preadipocytes differentiation assay was conduct according to Example 5.

RAW264.7 = assay: MTT cell viability assay; format: cell-based, murine
Experimental: (§7) The murine macrophage cell line RAW264.7 (BCRC 60001=ATCC TIB-71) was cultured in Dulbecco's modified Eagle's medium (DMEM, Gibco BRL Life Technologies, Inc.) supplemented with 10% heat inactivated fetal bovine serum (FBS) and incubated at 37° C. in a humidified 5% CO2 atmosphere with a 96-well flat-bottomed culture plate. After 24 hours, the condition medium was replaced with fresh DMEM and FBS. Then the three test compounds, Monasnicotinates A, C and D, (0, 1, 5, 10, and 20 μg/mL) were added respectively in the presence of lipopolysaccharide (LPS, 1 μg/mL; Sigma, Cat no: L-2654), and the plates were incubated at the same condition for 24 hours.
(§8) The cultured cells were then centrifuged and the supernatants were used for NO production measurement, with a MTT (3-(4,5-dimethylthiazol-2yl)-2,5-diphenyl tetrazolium bromide) assay to determine cell viability. The supernatant was mixed with an equal volume of the Griess reagent (1% sulfanilamide, 0.1% N-(1-naphthyl)ethyl-enediamine dihydrochloride in 2.5% phosphoric acid solution) and incubated for 10 min at room temperature. Nitrite concentration was determined by measuring the absorbance at 540 nm using an ELISA plate reader (μ Quant) (see Mosman, T., 1983, “Rapid colorimetric assay for cellular growth and survival: application to proliferation and cytotoxicity assays.” J. Immunol. Methods, 65: 55-63). The MTT colorimetric assay was modified from that of Mosmann (see Johansson, M., et al., 2002, “Biologically active secondary metabolites from the ascomycete A111-95.” J. Antibiot., 55: 104-106). The test is based upon the selective ability of living cells to reduce the yellow soluble salt, MTT, to a purple-blue insoluble formazan. MTT (Merck; dissolved in phosphate-buffered saline at 5 mg/mL) solution was added onto the attached cells mentioned above (10 μl per 100 μl culture) and incubated at 37° C. for 4 hours. Then, DMSO was added and the amount of colored formazan metabolite formed was determined by absorbance at 550 nm. The optical density of formazan formed in control (untreated) cells was taken as 100% viability.

3T3-L1 preadipocytes [2] = assay: 3T3-L1 preadipocyte differentiation, insulin differentiation model; format: cell-based; conditions: sample concentration 2 μg/ml, control = 100
Experimental: as §1, §2
The differentiation medium used in insulin differentiation model was DMEM with 10% FBS comprising 10 μg/ml of insulin. Differentiation media containing each of the four test compounds, Monasnicotinates A, B, C and D, were added to each well of the 24- or 96-well 3T3-L1 preadipocyte plates (the final concentration of the test compounds in each well is 2 μg/ml). The control group was the culture with only the differentiation medium and no sample. The cultures were incubated at 37° C. in a 5% CO2 incubator for seven days (during the period, the differentiation medium and sample were replaced with fresh ones twice), and then the medium was replaced by DMEM with 10% FBS. The cultures were maintained until day 9 or day 10. The cells of the experiment groups and control groups at day 9 or day 10 were stained with AdipoRed and the concentrations of triglyceride were analyzed.
as §3, §4, §5, §6

PPARγ [3] = biological target: T1, PPARγ (Homo sapiens, UniProt P37231); assay: LanthaScreen TR-FRET PPARγ competitive binding assay
T1 construct: purchased Invitrogen
T1 sequence (P37231 204-505 limits assumed): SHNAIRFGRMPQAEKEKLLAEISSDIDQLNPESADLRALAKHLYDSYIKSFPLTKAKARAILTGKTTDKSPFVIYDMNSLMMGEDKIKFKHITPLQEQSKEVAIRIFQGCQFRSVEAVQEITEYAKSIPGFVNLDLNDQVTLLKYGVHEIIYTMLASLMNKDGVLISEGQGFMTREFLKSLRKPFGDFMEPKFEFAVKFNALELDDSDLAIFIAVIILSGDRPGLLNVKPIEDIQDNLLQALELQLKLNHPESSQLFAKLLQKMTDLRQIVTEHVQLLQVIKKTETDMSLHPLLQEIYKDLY
Experimental: Monasnicotinates A, B, C and D were prepared according to Example 3 and Ethanol and ethyl acetate extracts of BCRC 930146-fermented rice were prepared according to Example 7. The binding activity of Monasnicotinates A, B, C and D and ethanol and ethyl acetate extracts of BCRC 930146-fermented rice to PPARγ and PPARα were analyzed using competitive binding assay kits (LanthaScreen TR-FRET PPARγ Binding Assay and Invitrogen PPARα Competitive Binding Assay) according to their instructions. Troglitazone and arachidonic acid were used as reference substances for PPARγ and PPARα ligand, respectively.

PPARγ [4] = assay: Nuclear PPARγ ELISA in differentiated 3T3-L1 cells; format: cell-based; conditions: final sample concentration 5 μg/mL, control: medium only
Experimental: Nuclear and cytosolic proteins of the differentiated 3T3-L1 cells were extracted and the nuclear PPARγ and cytosolic adiponectin contents were analyzed using commercial kits.
(§9) 3T3-L1 cells were incubated and differentiated on petri dish (9 cm) for 9 days and washed with PBS. 1 ml of buffer A working solution (Affymetrix® Nuclear Extraction Kits, Panomics, Inc.; freshly prepared according to the instructions) was added to the petri dish, and the petri dish was placed on ice and shaken for 10 minutes on a shaker. Cells on the petri dish were transferred to a 1.5 ml centrifuge tube and centrifuged at 14,000 rpm for 3 minutes. The supernatant, the cytosol fraction, was collected for further analysis. 0.5 ml of buffer B working solution (Affymetrix® Nuclear Extraction Kits, Panomics, Inc.; freshly prepared according to the instructions) was added to the centrifuge tube to re-suspend the cell pellet and the centrifuge tube was placed on ice and shaken for two hours on a shaker. The centrifuge tube was then centrifuged at 14,000 rpm for 5 minutes. The supernatant, the nucleus fraction, was collected for further analysis.
Nuclear PPARγ in the nucleus fraction was analyzed using Transcription Factor PPARγ ELISA Kit (Panomics, Inc.) according to the instructions.

[5] = test system: LPS-stimulated macrophage cells RAW264.7; assay: Inhibition of NO production induced by LPS (Griess reagent); format: cell-based, murine; conditions: Mus musculus, LPS 1 μg/mL, 24 hours
Experimental: as §7, §8

adiponectin = assay: Cytosolic adiponectin ELISA in differentiated 3T3-L1 cells; format: cell-based, Mouse; conditions: insulin model and DMI model, 5 μg/mL (FIG. 7)
Experimental: 3T3-L1 cells were treated with Monasnicotinates A, B, C and D (prepared in Example 3) as described in Example 5. Nuclear and cytosolic proteins of the differentiated 3T3-L1 cells were extracted and the nuclear PPARγ and cytosolic adiponectin contents were analyzed using commercial kits.
as §9
Cytosolic adiponectin in the cytosol fraction was analyzed using Quantikine Mouse Adiponectin immunoassay (R&D systems) according to the instructions.

[6] = test system: LPS-stimulated macrophage cells RAW264.7; conditions: literature value; read-out: IC50, production of NO by LPS-stimulated RAW264.7 (reported, Motai and Kitanaka 2005); cited from earlier work

| Structure (SMILES) | triglyceride droplets under inverted microscope (3T3-L1 preadipocytes [1]) | TG (%) (3T3-L1 preadipocytes [1]) | Cytotoxicity (MTT assay) (RAW264.7; 1-10 μg/mL, with LPS treatment for 24 hours) | AdipoRed (%) (3T3-L1 preadipocytes [2]) | TG (%) (3T3-L1 preadipocytes [2]) | IC50 (PPARγ [3]) [µM] | PPARγ expression (% of control) (PPARγ [4]; DMI model) | PPARγ expression (% of control) (PPARγ [4]; Insulin model) | IC50 [5] | concentration of cytosolic adiponectin (adiponectin) | Cytotoxicity (MTT assay) (RAW264.7; at 10 μg/mL) | Cytotoxicity (MTT assay) (RAW264.7; 1-20 μg/mL, with LPS treatment for 24 hours) | IC50 [6] [µM] |
| --- | --- | --- | --- | --- | --- | --- | --- | --- | --- | --- | --- | --- | --- |
| C/C=C/c1cc(/C=C(\CC(=O)CCCCC)C(C)=O)c(C(=O)OC)cn1 [Monasnicotinate A, methyl-4-((E)-2-acetyl-4-oxonon-1-enyl)-6-((E)-prop-1-enyl)nicotinate] | more triglyceride droplets than the control culture | 159 | did not show any significant cytotoxicity | 159 | 128 | 42 | 100 ± 7 % of control | 139 ± 1 % of control | 5.72 µg/mL and 16 µM | increase | – | – | – |
| C/C=C/c1cc(/C=C(\CC(=O)CCCCC)C(C)=O)c(C(=O)OCC)cn1 [Monasnicotinate B, ethyl-4-((E)-2-acetyl-4-oxonon-1-enyl)-6-((E)-prop-1-enyl)nicotinate] | more triglyceride droplets than the control culture | 175 | – | 287 | 132 | 11 | 147 ± 2 % of control | 237 ± 9 % of control | – | increase | – | – | – |
| C/C=C/c1cc(/C=C(\CC(=O)CCCCCCC)C(C)=O)c(C(=O)OC)cn1 [Monasnicotinate C, methyl-4-((E)-2-acetyl-4-oxoundec-1-enyl)-6-((E)-prop-1-enyl)nicotinate] | more triglyceride droplets than the control culture | 132 | – | 209 | 145 | 18.2 | 115 ± 1 % of control | 333 ± 15 % of control | – | increase | significant cytotoxic effect | – | – |
| CCCCCC(=O)C/C(=C\c1cc(CCC)ncc1C(=O)OC)C(C)=O [Monasnicotinate D, (E)-methyl-4-(2-acetyl-4-oxonon-1-enyl)-6-propylnicotinate] | more triglyceride droplets than the control culture | 204 | – | 247 | 169 | 64.5 | 166 ± 5 % of control | 424 ± 19 % of control | 9.4 µg/mL and 24.8 µM | increase | – | did not show any significant cytotoxicity | – |
| O=c1c(O)c(-c2ccc(O)c(O)c2)oc2cc(O)cc(O)c12 [quercetin, reference compound] | – | – | – | – | – | – | – | – | 26.4 µM | – | – | – | 26.8 |
